Results on eight compounds are retold here after PMC12186844 (ACS Chemical Neuroscience, 2025).

Assay [1] concerns the target T1, D2LR (Homo sapiens, UniProt P14416). The experiment in a line: inhibition of forskolin-stimulated cAMP production, BRET biosensor.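 Note: Flp-In-CHO cells stably expressing CAMYEL cAMP BRET sensor, agonist plus 10 µM forskolin, net BRET after forskolin-vehicle subtraction, parameters from complete operational model of allosterism and agonism.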 Format: cell-based.
Experimental: Flp-In-CHO cells stably coexpressing the CAMYEL biosensor and DRs were plated into white 96-well CulturPlates (Revvity) and grown overnight. The cells were equilibrated in Hank’s balanced salt solution (HBSS) at 37 °C (or 25 °C when indicated) before starting the experiment. The cells were costimulated with the agonists and 10 μM forskolin for the indicated time frames when the BRET readings were captured. Coelenterazine (Nanolight Technology, AZ) was added at a final concentration of 5 μM at least 3 min prior to measurement. […] Net BRET was determined by subtraction of the vehicle control coadded with 10 μM forskolin.
Dose–response curves were fitted using the following three-parameter equation: response=bottom+top−bottom/1+10^(logEC50−log[A]) 5 where top and bottom represent the maximal and minimal asymptote of the dose response curve, [A] is the molar concentration of the agonist, and EC50 is the molar concentration of the agonist required to give a response half-way between bottom and top.
Assay [2] deals with T1, D2LR. Description: whole cell [3H]raclopride binding assay.
Experimental: The binding reaction was conducted in HBSS for 1 h at 37 °C. The adherent cells were washed two times with cold 0.9% NaCl solution, and 100 μL/well scintilation liquid was added to the plate. The remaining radioactivity was detected in a MicroBeta counter.
The test system of a further assay is D1Rs. As to conditions: earlier report, reference number not given; cited from earlier work.
The mark [3] stands for this setting: orthosteric agonist efficacy, operational model.
[4] abbreviates: orthosteric ligand, radioligand binding assay.

Like-named read-outs stand apart in the source and are kept apart here.

T1 sequence (P14416 whole entry): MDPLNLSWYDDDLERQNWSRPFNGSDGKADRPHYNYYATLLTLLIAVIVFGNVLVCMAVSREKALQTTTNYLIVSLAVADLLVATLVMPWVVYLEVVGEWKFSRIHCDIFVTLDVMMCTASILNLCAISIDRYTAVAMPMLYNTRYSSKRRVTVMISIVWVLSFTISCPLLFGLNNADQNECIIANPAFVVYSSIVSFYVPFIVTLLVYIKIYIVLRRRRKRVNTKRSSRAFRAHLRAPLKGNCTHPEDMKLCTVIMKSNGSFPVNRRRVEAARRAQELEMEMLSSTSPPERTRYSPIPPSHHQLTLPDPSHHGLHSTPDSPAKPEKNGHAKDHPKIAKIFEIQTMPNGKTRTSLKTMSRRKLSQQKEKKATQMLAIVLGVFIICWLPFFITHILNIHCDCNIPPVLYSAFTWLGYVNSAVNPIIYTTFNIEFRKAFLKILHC

For `CC(C)C[C@H]1C(=O)N2CCC[C@H]2[C@]2(O)O[C@](NC(=O)[C@@H]3C=C4c5cccc6[nH]c(Br)c(c56)C[C@H]4N(C)C3)(C(C)C)C(=O)N12` [bromocriptine, reference compound], at D2LR [1], the LogτA amounted to 0.66 ± 0.04 and the τA is on record as 4.6. At D2LR [2], this compound showed a Kd of 1.32 nM.
Regarding `CCCN1C[C@H](CSC)C[C@@H]2c3cccc4[nH]cc(c34)C[C@H]21` [pergolide, reference compound], at D2LR [1] (setting [3]), the LogτA was found to be 1.01 ± 0.03 and the τA is 10.2.
Turning to `CCCN1CCC[C@@H](c2cccc(O)c2)C1` [S-(3)-PPP, reference compound], on D2LR [1] (setting [3]), the LogτA came out at 0.33 ± 0.05 and the τA worked out at 2.14.
On D2LR [1], `CN1CCc2cccc3c2[C@H]1Cc1ccc(O)c(O)c1-3` [apomorphine, reference compound] yielded a LogτA of 0.93 ± 0.02 and a τA of 8.5.
For `CC1Cc2ccccc2N1C(=O)c1nc2ccccc2s1` (stereo not shown) [D2 PAM1, 1,3-benzothiazol-2-yl(2-methyl-2,3-dihydro-indol-1-yl)methanone], the “activity at D1Rs” value with D1Rs is on record as “does not display activity”.
On to `CCCN(CCc1cccs1)[C@H]1CCc2c(O)cccc2C1` [rotigotine, reference compound], for which, on D2LR [1], the LogτA turned out to be 1.17 ± 0.05 and the τA turned out to be 14.8. This compound gave a Kd on D2LR [2] of 3.09 nM.
For the compound `CCCN(CCC)CCc1cccc2c1CC(=O)N2` [ropirinole, reference compound], at D2LR [1] (setting [3]), the LogτA is reported as 1.14 ± 0.08 and the τA came out at 13.8. At D2LR [2] (setting [4]), this compound displayed a KA of 1350 nM and a pKA of 5.87 ± 0.18.
For `CCCN[C@H]1CCc2nc(N)sc2C1` [pramipexole, reference compound], at D2LR [1], the LogτA amounted to 1.05 ± 0.04 and the τA was 11.2.
